Among the data in PMC5862592, “CDK8/19 inhibition induces premature G1/S transition and ATR-dependent cell death in prostate cancer cells” (Oncotarget, 2018) are remaining binding values, retold here.

Structures are written as SMILES. Where two headings read alike, the source gives them in different places.

What all share (assay): biochemical
What all share (design): KINOMEscan active site-directed competition binding assay (DiscoveRx), 456 kinases, per cent of control at 300 nM
Holding throughout (conditions): read-out: Percent of Control (%)

In one assay the target is WEE2 (Homo sapiens, UniProt P0C1S8). As for the experimental part:
(§1) Kinase selectivity of T-474 and T-418 was evaluated at 300 nmol/L using a panel of 456 kinases at DiscoveRx (KINOMEscan). The platform employs an active site-directed competition binding assay to quantitatively measure interactions between test compounds and kinases. […] In VCaP prostate cancer cells, treatment with T-474 or T-418 suppressed the phosphorylation of the known CDK8 substrate STAT1 at Ser727 both in the absence and in the presence of IFN-γ (Figure 1B), which stimulates CDK8-mediated STAT1 phosphorylation.

A further assay has as its target FLT3-autoinhibited (Homo sapiens, UniProt P36888). On the procedure:
as §1

The target in another assay is FGFR2 (Homo sapiens, UniProt P21802). On the procedure:
as §1

The target in a further assay is BUB1 (Homo sapiens, UniProt O43683). On the procedure: as §1
The next assay has as its target FLT3(K663Q) (Homo sapiens, UniProt P36888, K663Q). On the procedure:
as §1

The next assay concerns the target FER (Homo sapiens, UniProt P16591). As for the experimental part: as §1
The next assay deals with CLK3 (Homo sapiens, UniProt P49761). On the procedure: as §1
In the next assay the target is T1, PYK2 (Homo sapiens, UniProt Q14289).
T1 construct: gene PTK2B
T1 sequence (Q14289 whole entry): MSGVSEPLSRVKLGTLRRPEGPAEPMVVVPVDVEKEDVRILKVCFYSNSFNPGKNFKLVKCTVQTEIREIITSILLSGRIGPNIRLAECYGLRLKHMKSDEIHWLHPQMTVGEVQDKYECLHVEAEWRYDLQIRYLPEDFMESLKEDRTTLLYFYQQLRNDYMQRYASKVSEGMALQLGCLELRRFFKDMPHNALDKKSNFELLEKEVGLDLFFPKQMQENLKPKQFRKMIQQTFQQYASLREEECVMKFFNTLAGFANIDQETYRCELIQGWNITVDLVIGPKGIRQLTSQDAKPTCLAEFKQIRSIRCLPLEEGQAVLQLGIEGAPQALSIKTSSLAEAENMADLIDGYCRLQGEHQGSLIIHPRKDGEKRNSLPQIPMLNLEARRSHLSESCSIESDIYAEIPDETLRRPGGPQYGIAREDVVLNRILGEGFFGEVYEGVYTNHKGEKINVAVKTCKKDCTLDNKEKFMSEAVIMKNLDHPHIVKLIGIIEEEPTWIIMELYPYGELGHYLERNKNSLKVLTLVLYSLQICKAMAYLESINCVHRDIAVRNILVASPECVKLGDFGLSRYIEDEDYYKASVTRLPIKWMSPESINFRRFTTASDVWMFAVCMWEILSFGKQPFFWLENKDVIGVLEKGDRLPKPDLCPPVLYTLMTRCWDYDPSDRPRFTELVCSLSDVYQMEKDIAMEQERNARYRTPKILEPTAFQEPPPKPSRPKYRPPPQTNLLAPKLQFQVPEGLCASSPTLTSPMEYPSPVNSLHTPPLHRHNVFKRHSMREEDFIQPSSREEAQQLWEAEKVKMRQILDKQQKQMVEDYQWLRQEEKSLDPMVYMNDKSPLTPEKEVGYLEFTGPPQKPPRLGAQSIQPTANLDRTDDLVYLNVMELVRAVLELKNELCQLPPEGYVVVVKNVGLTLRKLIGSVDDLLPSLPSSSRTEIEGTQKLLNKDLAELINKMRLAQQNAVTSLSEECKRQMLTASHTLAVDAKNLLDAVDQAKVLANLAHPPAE
As for the experimental part: as §1

A further assay has as its target BRSK1 (Homo sapiens, UniProt Q8TDC3). On the procedure: as §1
A further assay addresses ACVR1 (Homo sapiens, UniProt Q04771). On the procedure: as §1
Another assay deals with MST1R (Homo sapiens, UniProt Q04912). On the procedure: as §1
The target in a further assay is ANKK1 (Homo sapiens, UniProt Q8NFD2). As for the experimental part:
as §1

For another assay, the target named is STK33 (Homo sapiens, UniProt Q9BYT3). On the procedure: as §1
Sequence of STK33 (Q9BYT3 whole entry): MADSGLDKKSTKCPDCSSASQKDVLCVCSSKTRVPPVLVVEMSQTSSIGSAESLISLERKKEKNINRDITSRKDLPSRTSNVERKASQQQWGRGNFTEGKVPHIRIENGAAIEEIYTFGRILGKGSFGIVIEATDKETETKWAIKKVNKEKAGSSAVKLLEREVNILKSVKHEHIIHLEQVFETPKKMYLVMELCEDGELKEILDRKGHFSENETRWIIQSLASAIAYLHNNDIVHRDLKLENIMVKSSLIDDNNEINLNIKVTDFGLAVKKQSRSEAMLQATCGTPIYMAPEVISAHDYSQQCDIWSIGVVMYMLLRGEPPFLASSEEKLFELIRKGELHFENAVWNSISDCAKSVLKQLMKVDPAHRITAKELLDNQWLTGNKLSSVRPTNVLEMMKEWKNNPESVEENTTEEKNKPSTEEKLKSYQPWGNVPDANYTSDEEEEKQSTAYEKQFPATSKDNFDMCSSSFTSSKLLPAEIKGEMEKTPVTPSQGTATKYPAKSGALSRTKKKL
Another assay concerns the target PRKG1 (Homo sapiens, UniProt Q13976). As for the experimental part:
as §1

The target in a further assay is T2, ERK1 (Homo sapiens, UniProt P27361).
T2 construct: gene MAPK3
T2 sequence (P27361 whole entry): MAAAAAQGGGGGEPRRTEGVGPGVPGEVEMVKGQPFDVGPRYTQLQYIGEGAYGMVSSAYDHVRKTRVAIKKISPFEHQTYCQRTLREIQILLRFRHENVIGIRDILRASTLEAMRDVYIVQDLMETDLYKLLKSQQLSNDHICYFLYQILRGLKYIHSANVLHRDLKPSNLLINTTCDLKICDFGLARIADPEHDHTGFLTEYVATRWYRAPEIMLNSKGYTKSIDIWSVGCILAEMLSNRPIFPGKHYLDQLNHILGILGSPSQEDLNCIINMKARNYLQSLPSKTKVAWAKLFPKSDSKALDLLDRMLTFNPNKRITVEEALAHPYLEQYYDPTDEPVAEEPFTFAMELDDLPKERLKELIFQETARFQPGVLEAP
On the procedure: as §1

A further assay concerns the target AKT2 (Homo sapiens, UniProt P31751). On the procedure:
as §1

For a further assay, the target named is NEK9 (Homo sapiens, UniProt Q8TD19). On the procedure: as §1
Sequence of NEK9 (Q8TD19 whole entry): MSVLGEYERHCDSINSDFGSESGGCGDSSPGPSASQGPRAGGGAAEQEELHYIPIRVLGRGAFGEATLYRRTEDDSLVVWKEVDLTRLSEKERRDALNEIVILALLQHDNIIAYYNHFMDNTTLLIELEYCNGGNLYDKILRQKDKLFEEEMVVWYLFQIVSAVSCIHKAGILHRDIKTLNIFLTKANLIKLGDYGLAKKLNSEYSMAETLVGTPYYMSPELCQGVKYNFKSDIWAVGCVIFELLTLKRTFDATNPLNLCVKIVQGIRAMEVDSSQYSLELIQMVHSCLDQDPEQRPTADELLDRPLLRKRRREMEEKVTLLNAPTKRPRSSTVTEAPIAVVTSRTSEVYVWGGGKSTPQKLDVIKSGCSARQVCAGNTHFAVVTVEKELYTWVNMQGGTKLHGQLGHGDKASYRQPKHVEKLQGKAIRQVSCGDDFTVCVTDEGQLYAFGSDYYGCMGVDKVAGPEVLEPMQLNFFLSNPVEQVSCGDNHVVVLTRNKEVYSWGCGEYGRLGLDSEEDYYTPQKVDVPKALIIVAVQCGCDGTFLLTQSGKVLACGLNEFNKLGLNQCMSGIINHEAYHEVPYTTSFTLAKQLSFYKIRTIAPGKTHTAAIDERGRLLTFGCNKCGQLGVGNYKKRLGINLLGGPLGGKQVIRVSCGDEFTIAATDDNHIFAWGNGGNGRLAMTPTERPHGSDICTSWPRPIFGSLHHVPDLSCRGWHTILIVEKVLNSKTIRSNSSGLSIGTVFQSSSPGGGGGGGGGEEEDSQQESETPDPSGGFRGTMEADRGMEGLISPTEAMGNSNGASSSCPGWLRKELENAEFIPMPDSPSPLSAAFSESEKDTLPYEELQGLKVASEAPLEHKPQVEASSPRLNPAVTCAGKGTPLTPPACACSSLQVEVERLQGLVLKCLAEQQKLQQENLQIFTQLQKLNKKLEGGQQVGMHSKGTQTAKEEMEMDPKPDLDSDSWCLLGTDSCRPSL
The next assay deals with T3, CDK4-cyclinD1 (Homo sapiens, UniProt P11802).
T3 construct: cyclinD1
On the procedure:
as §1

The target in a further assay is CASK (Homo sapiens, UniProt O14936). On the procedure: as §1
Sequence of CASK (O14936 whole entry): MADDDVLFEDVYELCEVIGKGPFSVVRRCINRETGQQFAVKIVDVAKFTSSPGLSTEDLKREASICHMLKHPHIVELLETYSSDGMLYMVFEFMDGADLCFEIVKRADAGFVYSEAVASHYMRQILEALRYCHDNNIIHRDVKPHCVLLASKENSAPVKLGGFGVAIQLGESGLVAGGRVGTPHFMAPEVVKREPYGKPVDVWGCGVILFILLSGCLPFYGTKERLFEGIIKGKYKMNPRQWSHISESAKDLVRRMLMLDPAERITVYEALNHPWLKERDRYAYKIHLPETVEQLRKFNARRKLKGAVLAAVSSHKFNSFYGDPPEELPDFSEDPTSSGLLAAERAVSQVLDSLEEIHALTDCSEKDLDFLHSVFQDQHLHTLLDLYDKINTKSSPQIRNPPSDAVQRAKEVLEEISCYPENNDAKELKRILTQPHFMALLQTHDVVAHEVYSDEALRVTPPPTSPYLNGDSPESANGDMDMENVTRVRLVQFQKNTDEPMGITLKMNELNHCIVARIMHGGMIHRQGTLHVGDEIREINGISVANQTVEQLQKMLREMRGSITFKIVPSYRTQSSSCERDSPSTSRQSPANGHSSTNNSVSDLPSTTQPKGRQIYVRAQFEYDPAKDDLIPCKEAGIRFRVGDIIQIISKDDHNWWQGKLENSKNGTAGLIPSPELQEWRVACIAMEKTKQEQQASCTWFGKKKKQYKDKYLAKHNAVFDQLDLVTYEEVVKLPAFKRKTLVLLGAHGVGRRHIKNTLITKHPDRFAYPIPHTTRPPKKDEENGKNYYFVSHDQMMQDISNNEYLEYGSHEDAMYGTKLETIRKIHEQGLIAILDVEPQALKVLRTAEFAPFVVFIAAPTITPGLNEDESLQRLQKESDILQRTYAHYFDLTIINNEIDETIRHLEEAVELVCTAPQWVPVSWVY
The target of the next assay is LIMK2 (Homo sapiens, UniProt P53671). On the procedure:
as §1

A further assay deals with T4, PIK4CB (Homo sapiens, UniProt Q9UBF8).
T4 construct: gene PI4KB
On the procedure: as §1

For the next assay, the target named is T5, JNK1 (Homo sapiens, UniProt P45983).
T5 construct: gene MAPK8
T5 sequence (P45983 whole entry): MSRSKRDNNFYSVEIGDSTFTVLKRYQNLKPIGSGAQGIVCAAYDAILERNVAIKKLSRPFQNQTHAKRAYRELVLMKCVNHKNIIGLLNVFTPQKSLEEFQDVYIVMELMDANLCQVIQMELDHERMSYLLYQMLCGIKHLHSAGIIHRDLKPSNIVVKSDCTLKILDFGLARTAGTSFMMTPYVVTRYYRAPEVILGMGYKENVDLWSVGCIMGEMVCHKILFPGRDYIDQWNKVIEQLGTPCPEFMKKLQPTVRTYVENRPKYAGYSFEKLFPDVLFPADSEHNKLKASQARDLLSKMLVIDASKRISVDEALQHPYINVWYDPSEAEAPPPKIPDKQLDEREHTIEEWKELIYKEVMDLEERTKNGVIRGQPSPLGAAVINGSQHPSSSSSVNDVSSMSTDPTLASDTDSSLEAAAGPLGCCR
As for the experimental part: as §1

Sequence of WEE2 (P0C1S8 whole entry): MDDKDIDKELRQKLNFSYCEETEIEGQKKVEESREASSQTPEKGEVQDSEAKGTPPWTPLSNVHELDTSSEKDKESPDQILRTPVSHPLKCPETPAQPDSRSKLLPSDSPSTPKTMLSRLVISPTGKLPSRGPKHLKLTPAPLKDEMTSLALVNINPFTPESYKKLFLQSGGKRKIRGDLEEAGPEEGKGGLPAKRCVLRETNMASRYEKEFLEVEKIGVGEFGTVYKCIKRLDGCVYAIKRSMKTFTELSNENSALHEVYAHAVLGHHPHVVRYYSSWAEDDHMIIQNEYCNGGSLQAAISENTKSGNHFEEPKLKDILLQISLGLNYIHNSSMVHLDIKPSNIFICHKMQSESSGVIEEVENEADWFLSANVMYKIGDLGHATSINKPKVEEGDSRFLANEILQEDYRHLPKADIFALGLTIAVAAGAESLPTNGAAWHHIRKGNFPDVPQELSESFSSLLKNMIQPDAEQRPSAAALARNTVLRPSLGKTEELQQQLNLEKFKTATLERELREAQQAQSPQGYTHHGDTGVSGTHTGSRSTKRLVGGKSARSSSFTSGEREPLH

As for `O=C(/C=C/c1cnccc1-c1ccc(F)cc1)Nc1ccc(CCc2nnco2)cc1` [T-418, (2E)-3-(4-(4-fluorophenyl)pyridin-3-yl)-N-(4-(2-(1,3,4-oxadiazol-2-yl)ethyl)phenyl)acrylamide], the remaining binding at 0.3 µM on WEE2 (sheet T-418) came out at 100%; at FLT3-autoinhibited (sheet T-418), 89%; on FGFR2 (sheet T-418), 90%; on BUB1 (sheet T-418), 100%; on FLT3(K663Q) (sheet T-418), 100%; at FER (sheet T-418), 98%. In addition, the remaining binding at 0.3 µM stood at 92% at CLK3 (sheet T-418); 88% on PYK2 (sheet T-418); 100% at BRSK1 (sheet T-418); 100% at ACVR1 (sheet T-418); 100% on MST1R (sheet T-418); 89% on ANKK1 (sheet T-418). In addition, the remaining binding at 0.3 µM on STK33 (sheet T-418) worked out at 91%; on PRKG1 (sheet T-418) it was 87%; on ERK1 (sheet T-418), 94%; on AKT2 (sheet T-418), 100%; at NEK9 (sheet T-418), 100%; on CDK4-cyclinD1 (sheet T-418), 91%. The remaining binding at 0.3 µM on CASK (sheet T-418) came to 89%; at LIMK2 (sheet T-418), 74%; at PIK4CB (sheet T-418), 100%; on JNK1 (sheet T-418), 90%.
With `Cc1ncccc1Oc1sc(C(N)=O)c2c1-c1c(cnn1C)CC2` [T-474, 1-methyl-8-((2-methylpyridin-3-yl)oxy)-4,5-dihydro-1H-thieno[3,4-g]indazole-6-carboxamide], the remaining binding at 0.3 µM is 100% on WEE2; 78% on FLT3-autoinhibited; 100% on FGFR2; 100% at BUB1; 100% at FLT3(K663Q); 90% at FER. For the same compound, the remaining binding at 0.3 µM on CLK3 came to 100%; on PYK2, 100%; on BRSK1, 100%; at ACVR1, 100%; at MST1R it was 95%; on ANKK1, 100%. In addition, the remaining binding at 0.3 µM was found to be 86% at STK33; 100% on PRKG1; 100% at ERK1; 100% at AKT2; 100% at NEK9; 95% on CDK4-cyclinD1. The remaining binding at 0.3 µM is 85% at CASK, 79% on LIMK2, 100% on PIK4CB and 87% at JNK1.
